From ChEMBL document CHEMBL3621101 (Medchemcomm, 2014) come the findings set out here.

The nature of the data set: physchem. Particulars: pH 7.
`CN1CCCN(c2nc(NC3CCN(Cc4ccccc4)CC3)c3ccccc3n2)CC1`: the pKa was 8.06.

`c1ccc(CN2CCC(Nc3nc(N4CCCCC4)nc4ccccc34)CC2)cc1` showed a pKa of 7.4.

As to `COc1cc2nc(N3CCN(c4ccccn4)CC3)nc(NC3CCN(Cc4ccccc4)CC3)c2cc1OC`, the pKa worked out at 8.1.

Regarding `CN1CCCN(c2nc(NC3CCN(Cc4ccccc4)CC3)c3occc3n2)CC1`, the pKa was found to be 4.57.

On to `COc1cc2nc(N3CCN(C)CC3)nc(NC3CCN(Cc4ccccc4)CC3)c2cc1OC`, for which the pKa stood at 5.6.

The molecule `c1ccc(CN2CCC(Nc3nc(N4CCCCC4)nc4ccoc34)CC2)cc1` gave a pKa of 5.31.

`c1ccc(CN2CCC(Nc3nc(N4CCN(c5ccccn5)CC4)nc4ccsc34)CC2)cc1` came in with a pKa of 6.88.

`CN1CCCN(c2nc3c(c(NC4CCN(Cc5ccccc5)CC4)n2)CCC3)CC1` gave a pKa of 6.62.

Molecule `CN1CCN(c2nc(NC3CCN(Cc4ccccc4)CC3)c3sccc3n2)CC1` yielded a pKa of 5.77.

`CN1CCCN(c2nc(NC3CCN(Cc4ccccc4)CC3)c3sccc3n2)CC1` yielded a pKa of 5.68.

`c1ccc(CN2CCC(Nc3nc(N4CCN(c5ccccn5)CC4)nc4ccoc34)CC2)cc1` showed a pKa of 5.77.

As for `COc1cc2nc(N3CCCN(C)CC3)cc(NC3CCN(Cc4ccccc4)CC3)c2cc1OC`, the pKa is 10.6.

`CN1CCCN(c2nc(NC3CCN(Cc4ccccc4)CC3)c3[nH]cnc3n2)CC1` returned a pKa of 3.15.

`CN1CCN(c2nc(NC3CCN(Cc4ccccc4)CC3)c3occc3n2)CC1` returned a pKa of 4.66.

On to `COc1cc2nc(N3CCCCC3)nc(NC3CCN(Cc4ccccc4)CC3)c2cc1OC`, for which the pKa was determined as 7.47.

On to `CN1CCN(c2nc(NC3CCN(Cc4ccccc4)CC3)c3cc4c(cc3n2)OCO4)CC1`, for which the pKa was 5.58.

For `CN1CCCN(c2nc(NC3CCN(Cc4ccccc4)CC3)c3ccsc3n2)CC1`, the pKa amounted to 3.28.

In turn, `c1ccc(CN2CCC(Nc3nc(N4CCCCC4)nc4nc[nH]c34)CC2)cc1` returned a pKa of 3.73.

In turn, `COc1cc2nc(N3CCCN(C)CC3)nc(NC3CCN(Cc4ccccc4)CC3)c2cc1OC` displayed a pKa of 8.13.

In the case of `c1ccc(CN2CCC(Nc3nc(N4CCCCC4)nc4cc5c(cc34)OCO5)CC2)cc1`, the pKa turned out to be 7.45.

`c1ccc(CN2CCC(Nc3nc(N4CCN(c5ccccn5)CC4)nc4cc5c(cc34)OCO5)CC2)cc1` returned a pKa of 8.08.

As for `c1ccc(CN2CCC(Nc3nc(N4CCCCC4)nc4ccsc34)CC2)cc1`, the pKa was 6.42.

On to `c1ccc(CN2CCC(Nc3nc(N4CCCCC4)nc4sccc34)CC2)cc1`, for which the pKa was found to be 3.86.

The molecule `CN1CCN(c2nc(NC3CCN(Cc4ccccc4)CC3)c3ccccc3n2)CC1` registered a pKa of 5.53.

Turning to `COc1cc2nc(N3CCN(C)CC3)cc(NC3CCN(Cc4ccccc4)CC3)c2cc1OC`, the pKa came out at 9.84.

`c1ccc(CN2CCC(Nc3nc(N4CCN(c5ccccn5)CC4)nc4ccccc34)CC2)cc1` registered a pKa of 8.03.

As to `CN1CCN(c2nc(NC3CCN(Cc4ccccc4)CC3)c3ccsc3n2)CC1`, the pKa turned out to be 3.35.
